Data from paper PMC11650737, “Developing MYC Degraders Bearing the Von Hippel–Lindau Ligand to Target the “Undruggable” MYC” (ACS Pharmacology & Translational Science, 2024).
Where “and” joins values, the source holds several entries; their conditions need not be identical. Equal entries are not always repeated. Entries after “also recorded” stand apart in the source; their conditions may differ.

Legend:
A549 cells [1] = test: Cell viability (MTT) assay, A549; assay type: cell-based, human; details: 72 h
Description: The antiproliferative activity of the synthesized compounds was tested in cell viability assays optimally set up for various cancer cell lines (results are depicted in Table 2, n = 3, average IC50 (μM) ± SD).
Cells were plated at a density of 5 × 10^3 cells per well on 96-well plates. After 24 h of incubation (37 °C, 5% CO2), the cell medium was removed, and compounds were added at selected concentrations (0.1–100 μM), followed by incubation for 72 h. Control cells were treated with 0.4% DMSO medium to match the conditions in the wells where drugs were added. After 72 h, the medium was removed, and the 3-(4,5-dimethylthiazol-2-yl)-2,5-diphenyltetrazolium bromide (MTT) solution (0.3 mg/mL in PBS) was added to cells for 3 h under no light conditions. The MTT solution was removed, and the formazan crystals were dissolved in 100 μL of DMSO. The optical density was measured at 570 nm with a reference wavelength of 690 nm using an absorbance microplate reader (SpectraMax 190, Molecular Devices, Sunnyvale, CA, USA). The half-maximal inhibitory concentration (IC50) was calculated based on a four-parameter logistic equation, generating a cell viability curve, using GraphPad Prism 6.01 (GraphPad Software, Inc.). […] The resulting absorbance values were used instead of IC50 calculation. […]

SKBR3 cells = test: Cell uptake / intracellular concentration by LC-MS/MS, SKBR3; assay type: in vitro ADME, human; details: SKBR3, 24 h incubation with 10 μM
Description: (§1) Therefore, in order to better comprehend the observed activities of our degraders, following incubation of each compound with cells, the intracellular concentrations of the synthesized derivatives were evaluated in different cancer cell lines, as described previously.[28],[29] SKBR3, PC3, or A549 cells were incubated with PROTACs (at a 10 μΜ concentration) for selected time points, respectively. Upon sample treatment, compounds were extracted and analyzed by LC-MS/MS. Table 1 presents the percentage of the molecule that enters the cells after 24 h incubation at the 10 μM concentration. […] The small molecule MYCi361, used as a binding domain component of MYC, was also evaluated in the cell uptake assay (Table 1).
Cells were plated in 24-well plates at a density of 2 × 10^5 cells/well. 24 h after seeding, cells were incubated with each PROTAC (10 μΜ) for certain time points (1 h, 4 h, 8 h, and 24 h). The incubations were terminated at the selected time points by removing the medium and washing the cells twice with 1 mL cold PBS (1×) in each well in order to remove unbound PROTAC. Subsequently, the cells were lysed by adding a cold solution of ACN:H2O (3:2) and scraping off the cell monolayer. This process was done in two steps: first, 200 μL of ACN:H2O was added, the cells were scraped, and the cell lysate was collected. The second step involved the addition of an extra 100 μL of ACN:H2O, scraping, and collection of the remaining lysate. Samples were subsequently vortexed, sonicated, and centrifuged for 10 min at 13 000 rpm. The supernatants were collected, evaporated for 1 h at 55 °C, and stored at −20 °C until the day of analysis. Samples were then reconstituted in 200 μL of initial mobile phase (100% A), and the intracellular accumulation of PROTACs was determined by LC-MS/MS analysis using Warfarin as a stable internal standard and PROTAC standards for the construction of analytical standard curves.
(§2) The percentage of cell uptake was calculated as follows: [drawing 1]

MYC:MAX complex = test: In vitro MYC-MAX binding assay (GST pull-down); assay type: biochemical; details: compound 150 μM
Description: To assess whether the new degraders affect direct interaction of MYC with MAX, we employed a pull-down approach using recombinant proteins that correspond to the bHLHZ regions of MYC and MAX. GST-MYC, bound to glutathione sepharose beads, was incubated with the pyrazole compounds, followed by incubation with His-MAX. Finally, the complex of GST-MYC/HisMAX was eluted by the addition of excess glutathione, while the amount of the eluted complex was assessed by western blotting using anti-MAX antibodies (Figure 5).
Figure 5 Inhibition of the formation of the MYC:MAX complex by the pyrazole compounds. The indicated compounds (150 μM), or the solvent alone (DMSO, used as a control), were incubated with GST-MYC containing glutathione beads for 10 min at […], followed by incubation with His-MAX. […] The complex of GST-MYC:His-MAX was eluted by incubation of the beads with free glutathione. The amount of the eluted complex was analyzed by western blotting (presented in the inset), using anti-MAX antibodies, while the protein bands were quantified with the ImageJ software. The intensity of the bands is presented in the bar graph. […] Statistics were based on the unpaired two-tailed student’s t-test. Data are shown as mean ± SEM.
MYC–MAX complex formation assays were performed using recombinantly produced GST-MYC and His-MAX proteins, following the glutathione GST pull-down principle (Lentzaris et al., in preparation). In this assay, recombinant GST-MYC bound to glutathione beads was preincubated with the indicated compound or vehicle […]. As a negative control, empty beads, i.e., not loaded with GST-MYC, were used. The formed complex was eluted with glutathione, while the amount of bound MAX (indicating the amount of the generated complex) was assessed by Western blotting using anti-MAX antibodies (Abcam) and quantified based on the image J free software. All assays were carried out at least three independent times.

A549 cells [2] = test: Cell uptake / intracellular concentration by LC-MS/MS, A549; assay type: in vitro ADME, human; details: A549, 24 h incubation with 10 μM
Description: as §1
Cells were plated in 24-well plates at a density of 2 × 10^5 cells/well. 24 h after seeding, cells were incubated with each PROTAC (10 μΜ) for certain time points (1 h, 4 h, 8 h, and 24 h). […] Samples were then reconstituted in 200 μL of initial mobile phase (100% A), and the intracellular accumulation of PROTACs was determined by LC-MS/MS analysis using Warfarin as a stable internal standard and PROTAC standards for the construction of analytical standard curves.
as §2

[3] = Stability of PROTACs in cell medium (DMEM), LC-MS/MS; assay type: physicochemical; details: 72 h at 37 °C, 5 μM in DMEM (10% FBS)
Description: The stability of selected molecules, such as CSI86, was studied in cell medium over a time frame of 72 h at 37 °C.
The stability of most compounds, including CSI86 PROTAC, was evaluated in DMEM. The drug was prepared at a concentration of 5 μM in DMEM (10% FBS, 1% pen/strep) and aliquoted at approximately 200 μL per Eppendorf. The samples were collected at appropriate time points (0, 1 h, 2 h, 4 h, 8 h, 24 h, 48 h, and 72 h) and stored at −80 °C. On the day of the LC-MS/MS analysis, samples were prepared (50 μL drug in DMEM + 50 μL ACN:H2O + 50 μL IS + 100 μL cold ACN), vortexed, sonicated, and centrifuged at 13 000 rpm for 15 min. Then, samples were transferred into glass tubes, diluted in the initial mobile phase (20% Α – 80% Β), centrifuged for 1 min, and added to a 96-well plate for the LC-MS/MS analysis.

| IC50 (antiproliferative effect) (A549 cells [1]) | Uptake by cells (SKBR3 cells) | intracellular concentration (SKBR3 cells; corresponding to the uptake) [µM] | Uptake by cells (A549 cells [2]) | stability in cell medium (DMEM) [3] | Compound | inhibition of MYC:MAX complex formation (binding of His-MAX to GST-MYC) (MYC:MAX complex) |
| --- | --- | --- | --- | --- | --- | --- |
| inactive | 26% and 26 ± 5% | 2.6 | 10% and 10 ± 2% | stable | Cc1ncsc1-c1ccc(CNC(=O)[C@@H]2C[C@@H](O)CN2C(=O)[C@@H](NC(=O)CCC(=O)NCCCOc2ccc(-c3cc(C(F)(F)F)nn3C)c(O)c2-c2cc(C(F)(F)F)cc(C(F)(F)F)c2)C(C)(C)C)cc1 [CSI86] | no effect on MYC/MAX dimerization |
| – | – | – | – | – | Cc1ncsc1-c1ccc(CNC(=O)[C@@H]2C[C@@H](O)CN2C(=O)[C@@H](NC(=O)CCCC(=O)NCCCOc2ccc(-c3cc(C(F)(F)F)nn3C)c(O)c2-c2cc(C(F)(F)F)cc(C(F)(F)F)c2)C(C)(C)C)cc1 [CSI107] | inhibited the binding of HisMAX to MYC; also recorded: inhibits dimerization |
